Assay results published in patent US10071244B2, “Thoracoscopic electroporation device with a suction head and with needle electrodes” (UNIVERSITY COLLEGE CORK—NATIONAL UNIVERSITY OF IRELAND, CORK, priority 2012, dated 2018).

Test system: tumour tissue
Experiment: Evans Blue perfusion test in tumour-bearing mouse
Format: in vivo
Text: FIG. 53 illustrates the result of an Evans Blue perfusion test;
Perfusion • A. One of the physiological impediments reducing the efficacy of chemotherapy relates to the poor diffusion of the drug from the capillaries through to the interstitial spaces surrounding the tumour cells. Poor lymphatic drainage and an irregular vasculature leads to the tumour interstitial pressure increasing with time as the tumour grows. This positive pressure is the opposite of normal tissue where a slightly negative interstitial pressure allows for convection of molecules across the capillaries. See FIG. 51 in which the X-axis represents the tumour volume in cm^3, Y-axis represents tumour interstitial pressure readings in mmHg. Each dot represents one TIP reading at a given tumour volume. Linear line represents correlation coefficients between tumour volume and TIP. • B. The positive pressure within the tumour tissue can be immediately negated through the placement of a vacuum directly on the tumour tissue. […] This facilitates better drug perfusion throughout the tumour interstitial spaces (between the cells) by allowing convection of macromolecules from the capilliaries to the […]. • C. This correction allows for perfusion of the chemotherapy from the capillaries into the tumour tissue. […]

dye perfusion into tumour, no vacuum (15 mins after injection into blood supply, tumour excised and dissected): only the periphery has absorbed the dye
SMILES: Cc1cc(-c2ccc(/N=N/c3ccc4c(S(=O)(=O)O)cc(S(=O)(=O)O)c(N)c4c3O)c(C)c2)ccc1/N=N/c1ccc2c(S(=O)(=O)O)cc(S(=O)(=O)O)c(N)c2c1O [Evans blue]
dye perfusion into tumour, with vacuum (vacuum applied to the tumour for 1 minute at 200 mmHg of negative pressure): Deep permeation of the dye is achieved throughout the tumour tissue
